Reference: patent US5663148A, “Anaphylatoxin receptor ligands containing lipophilic residues” (Abbott Laboratories, priority 1994, dated 1997)
*1 amine or outer side, *2 acyl side, *3 side chain or, on linkers, in order; H or OH if unused. Where a SMILES comes first, the peptide text is derived from it. [ ]: non-standard residue; d: D form. The star is where a group is joined. ξ: configuration not given here. Gly(N(CH2)2(3-indolyl)) = O=C(O)CNCCc1c[nH]c2ccccc12; X13 = O=C([C@H](CC1CCCCC1)N(CCc1ccccc1)[*:1])[*:2]; X5 = O=C([C@H](CC1CCCCC1)N(Cc1ccccc1)[*:1])[*:2]; d(hhPhe) = N[C@H](CCCc1ccccc1)C(=O)O; X2 = O=C(C(CCOc1ccccc1)N[*:1])[*:2]; Cha = N[C@@H](CC1CCCCC1)C(=O)O; ξhhPhe = NC(CCCc1ccccc1)C(=O)O; 3Amb = NCc1cccc(C(=O)O)c1; PhAc = O=C(Cc1ccccc1)*; Ahp = NCCCCCCC(=O)O; X12 = CC(c1ccccc1)*; Ahx = NCCCCCC(=O)O; Bn = c1ccc(C*)cc1

Molecular target: T1, C5a receptor (Homo sapiens, UniProt P21730)
T1 construct: from tissue; host or cells: polymorphonuclear leukocyte (PMNL) membrane fragments
T1 sequence (P21730 1-350): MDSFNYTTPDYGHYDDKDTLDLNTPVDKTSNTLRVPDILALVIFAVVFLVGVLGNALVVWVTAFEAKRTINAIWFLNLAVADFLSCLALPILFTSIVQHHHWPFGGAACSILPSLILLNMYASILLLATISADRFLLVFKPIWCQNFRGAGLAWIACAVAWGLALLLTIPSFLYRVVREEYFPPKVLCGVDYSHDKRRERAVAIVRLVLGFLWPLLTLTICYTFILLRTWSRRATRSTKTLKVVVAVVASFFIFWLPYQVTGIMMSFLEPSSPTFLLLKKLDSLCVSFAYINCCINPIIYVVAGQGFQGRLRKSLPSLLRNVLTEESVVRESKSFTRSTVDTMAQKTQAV
Test: Anaphylatoxin (C5a) receptor binding Ki determination, 125I-C5a on PMNL membrane fragments
Conditions: read-out: Ki (In vitro C5a Receptor Binding Potency)
Procedure: The membrane-bound radiolabeled C5a was separated from the free radiolabeled C5a by filtration, and the recovered gamma radioactivity was measured. […] Free and membrane-bound ligand were separated by filtration.

| Compound | Ki [µM] |
| --- | --- |
| CC(C)C[C@H](NC(=O)CNC(=O)[C@@H](N)CSCc1ccccc1)C(=O)N[C@H](CCCc1ccccc1)C(=O)N[C@@H](CCCNC(=N)N)C(=O)O [Example 90, H-Cysteinyl(S-benzyl)-Glycyl-Leucyl-{(R)-2-Amino-5-phenylpentanoyl}-Arginyl-OH] (H-C(Bn)GL[d(hhPhe)]R-OH) | 0.18 |
| CC(C)C[C@H](NC(=O)CNC(=O)[C@H](Cc1ccccc1)NC(=O)CCCCCN)C(=O)NC(CCCc1ccccc1)C(=O)N[C@@H](CCCNC(=N)N)C(=O)O (single isomer, unassigned) [Example 124, N-(6-Aminohexanoyl)-Phenylalanyl-Glycyl-Leucyl{(R/S)-2-Amino-5-phenylpentanoyl}-Arginyl-OH] | 34 |
| CC(C)C[C@H](NC(=O)[C@H](C)NC(=O)[C@H](CC1CCCCC1)NC(=O)[C@@H]1CCCN1C(=O)[C@H](CCCCN)NC(=O)[C@@H](N)Cc1ccccc1)C(=O)N[C@H](CCCc1ccccc1)C(=O)N[C@@H](CCCNC(=N)N)C(=O)O [Example 2, H-Phenylalanyl-Lysyl-Prolyl-{(2S)-2-Amino-3-cyclohexylpropanoyl}-Alanyl-Leucyl-{(R)-2-Amino-5-phenylpentanoyl}-Arginyl-OH] (H-FKP[Cha]AL[d(hhPhe)]R-OH) | 0.0048 |
| CC(C)C[C@H](NC(=O)CNC(=O)[C@H](Cc1ccccc1)NC(=O)CCCCCN)C(=O)NC(CCCc1ccccc1)C(=O)N[C@@H](CCCNC(=N)N)C(=O)O (single isomer, unassigned) [Example 125, N-(6-Aminohexanoyl)-Phenylalanyl-Glycyl-Leucyl-{(R/S)-2-Amino-5-phenylpentanoyl}-Arginyl-OH] | 0.83 |
| CC(C)C[C@H](NC(=O)CNC(=O)[C@H](CC1CCCCC1)NCc1ccccc1)C(=O)N[C@H](CCCc1ccccc1)C(=O)N[C@@H](CCCNC(=N)N)C(=O)O [Example 63, H-{(2S)-2-Amino-3-cyclohexylpropanoyl}(N-Benzyl)-Glycyl-Leucyl-{(R)-2-Amino-5-phenylpentanoyl}-Arginyl-OH] (H-[X5]GL[d(hhPhe)]R-OH) | 0.4 |
| CC(C)C[C@H](NC(=O)[C@H](C)NC(=O)[C@H](CC1CCCCC1)NC(=O)[C@@H]1CCCN1C(=O)CCCCCN)C(=O)NC(CCCc1ccccc1)C(=O)N[C@@H](CCCNC(=N)N)C(=O)O (stereo partly drawn) [Example 81, N-(6-Aminohexanoyl)-Prolyl-{(2S)-2-Amino-3-cyclohexylpropanoyl}-Alanyl-Leucyl-{(+)-2-Amino-5-phenylpentanoyl}-Arginyl-OH] (H-[Ahx]P[Cha]AL[ξhhPhe]R-OH) | 0.11 |
| CC(C)C[C@H](NC(=O)CNCCc1c[nH]c2ccccc12)C(=O)N[C@H](CCCc1ccccc1)C(=O)N[C@@H](CCCNC(=N)N)C(=O)O [Example 79, N-[(Indol-3-yl)ethyl]-Glycyl-Leucyl-{(R)-2-Amino-5-phenylpentanoyl}-Arginyl-OH] (H-[Gly(N(CH2)2(3-indolyl))]L[d(hhPhe)]R-OH) | 0.39 |
| CC(C)C[C@H](NC(=O)CNC(=O)[C@H](CC1CCCCC1)NC(=O)CCN)C(=O)NC(CCCc1ccccc1)C(=O)N[C@@H](CCCNC(=N)N)C(=O)O (single isomer, unassigned) [Example 84] | 3.9 |
| N=C(N)NCCC[C@H](NC(=O)C(CCCc1ccccc1)NC(=O)c1cccc(CNC(=O)[C@H](CC2CCCCC2)NC(=O)[C@@H]2CCCN2C(=O)CCCCCN)c1)C(=O)O (stereo partly drawn) [Example 109, N-(6-Aminohexanoyl)-Prolyl-{(2S)-2-Amino-3-cyclohexylpropanoyl}-(3-Aminomethylbenzoyl)-{(+)-2-Amino-5-phenylpentanoyl}-Arginyl-OH] (H-[Ahx]P[Cha][3Amb][ξhhPhe]R-OH) | 4.8 |
| CSCC[C@H](NC(=O)[C@H](CC(=O)O)NC(=O)[C@@H](N)CCCCN)C(=O)N[C@@H](CCC(N)=O)C(=O)N[C@@H](CC(C)C)C(=O)NC(CCCc1ccccc1)C(=O)N[C@@H](CCCNC(=N)N)C(=O)O (single isomer, unassigned) [Example 40, H-Lysyl-Aspartyl-Methionyl-Glutaminyl-Leucyl-{(R/S)-2-Amino-5-phenylpentanoyl}-Arginyl-OH] | 1.1 |
| CC(C)C[C@H](NC(=O)CNC(=O)[C@H](CC1CCCCC1)NC(=O)CCCCN)C(=O)NC(CCCc1ccccc1)C(=O)N[C@@H](CCCNC(=N)N)C(=O)O (single isomer, unassigned) [Example 139] | 1.1 |
| CC(C)C[C@H](NC(=O)CCCc1c[nH]c2ccccc12)C(=O)NC(CCCc1ccccc1)C(=O)N[C@@H](CCCNC(=N)N)C(=O)O (mixture of isomers) [Example 30, N-(Indole-3-butyryl)-Leucyl-{(R/S)-2-Amino-5-phenylpentanoyl}-Arginyl-OH] | 7.1 |
| CC(C)C[C@H](NC(=O)CNC(=O)[C@H](CC1CCCCC1)NC(=O)CCCCCCN)C(=O)NC(CCOc1ccccc1)C(=O)N[C@@H](CCCNC(=N)N)C(=O)O (some centres unmarked) [Example 48] (H-[Ahp][Cha]GL[X2]R-OH) | 0.23 |
| CC(C)C[C@H](NC(=O)CNC(=O)[C@H](CC1CCCCC1)NCCc1ccccc1)C(=O)N[C@H](CCCc1ccccc1)C(=O)N[C@@H](CCCNC(=N)N)C(=O)O [Example 78, N-(2-Phenethyl)-{(2S)-2-Amino-3-cyclohexylpropanoyl}-Glycyl-Leucyl-{(R)-2-Amino-5-phenylpentanoyl}-Arginyl-OH] (H-[X13]GL[d(hhPhe)]R-OH) | 0.07 |
| CSCC[C@H](NC(=O)[C@H](CC(=O)O)NC(=O)[C@@H](N)CCCCN)C(=O)N[C@@H](CCC(N)=O)C(=O)N[C@@H](CC(C)C)C(=O)NC(CCCc1ccccc1)C(=O)N[C@@H](CCCNC(=N)N)C(=O)O (single isomer, unassigned) [Example 39, H-Lysyl-Aspartyl-Methionyl-Glutaminyl-Leucyl-{(R/S)-2-Amino-5-phenylpentanoyl}-Arginyl-OH] | 71 |
| CC(C)C[C@H](NC(=O)CNC(=O)[C@@H](N)CSC(C)c1ccccc1)C(=O)N[C@H](CCCc1ccccc1)C(=O)N[C@@H](CCCNC(=N)N)C(=O)O (stereo partly drawn) [Example 91, H-Cysteinyl(S-1-phenethyl)-Glycyl-Leucyl-{(R)-2-Amino-5-phenylpentanoyl}-Arginyl-OH] (H-C(X12)GL[d(hhPhe)]R-OH) | 0.39 |
| CC(C)C[C@H](NC(=O)[C@@H](C)NC(=O)[C@H](CC1CCCCC1)NC(=O)CCCCCN)C(=O)NC(CCCc1ccccc1)C(=O)N[C@@H](CCCNC(=N)N)C(=O)O (single isomer, unassigned) [Example 126] | 13.4 |
| CC(C)C[C@H](NC(=O)CNC(=O)Cc1ccccc1)C(=O)N[C@H](CCCc1ccccc1)C(=O)N[C@@H](CCCNC(=N)N)C(=O)O [Example 93, N-Phenylacetyl-Glycyl-Leucyl-{(R)-2-Amino-5-phenylpentanoyl}-Arginyl-OH] (PhAc-GL[d(hhPhe)]R-OH) | 0.17 |
| CC(C)C[C@H](NC(=O)CCc1c[nH]c2ccccc12)C(=O)N[C@H](CCCc1ccccc1)C(=O)N[C@@H](CCCNC(=N)N)C(=O)O [Example 38, N=(Indole-3-propionyl)-Leucyl-{(R)-2-Amino-5-phenylpentanoyl}-Arginyl-OH] | 8.4 |
| CC(C)C[C@H](NC(=O)CNC(=O)[C@H](CC1CCCCC1)NC(=O)NCc1ccc(CN)cc1)C(=O)NC(CCCc1ccccc1)C(=O)N[C@@H](CCCNC(=N)N)C(=O)O (mixture of isomers) [Example 145, N-[N-(4-Aminomethylbenzyl)aminocarbonyl]-{(2S)-2-Amino-3-cyclohexylpropanoyl}-Glycyl-Leucyl-{(R/S)-2-Amino-5-phenylpentanoyl}-Arginyl-OH] | 7 |
| CC(C)C[C@H](NC(=O)[C@H](C)NC(=O)[C@H](CC1CCCCC1)NC(=O)[C@@H]1CCCN1C(=O)[C@H](CCCCN)NC(=O)CN)C(=O)NC(CCCc1ccccc1)C(=O)N[C@@H](CCCNC(=N)N)C(=O)O (single isomer, unassigned) [Example 52] | 10.3 |
| CC(C)C[C@H](NC(=O)[C@H](C)NC(=O)[C@H](CC1CCCCC1)NC(=O)[C@@H]1CCCN1C(=O)[C@@H](N)CCCCN)C(=O)NC(CCCc1ccccc1)C(=O)N[C@@H](CCCNC(=N)N)C(=O)O (single isomer, unassigned) [Example 69] | 0.14 |
| CC(C)C[C@H](NC(=O)CNC(=O)C=C1CNc2ccccc21)C(=O)N[C@H](CCCc1ccccc1)C(=O)N[C@@H](CCCNC(=N)N)C(=O)O (single isomer, unassigned) [Example 65] | 0.3 |
